# Measurements: patent publication US4086221A, “Polypeptides and process for producing the same” (Toyo Jozo Kabushiki Kaisha, priority 1975, dated 1978)
# Where a SMILES comes first, the peptide text is derived from it. Bridges are numbered along the chain shown (N, C = ends). [ ]: non-standard residue; d: D form. Asu = N[C@@H](CCCCCC(=O)O)C(=O)O
# Tested on: Male rats
# Test: Assay method for serum calcium reducing activity (potency against Research Standard B)
# Assay type: in vivo, rat
# Conditions: intravenous injection 0.2 ml, serum calcium 1 hour after injection, versus Research Standard B
# Protocol: The assay method for serum calcium reducing activity, the carrier and developing system for thin layer chromatography and conditions for amino acid analysis are as follows:
# Sample is diluted adequately with 0.1 N sodium acetate - 0.1% albumin solution. Male rats are subjected individually to intravenous injection with 0.2 ml. of the respective diluted solutions. After 1 hour, all the rats are killed to obtain their respective blood, and serum calcium value of each blood sample is determined by atomic absorption spectrophotomery. On the other hand, Research Standard B, which is an extract obtained from the thyroid gland of the hog, is diluted so as to give dilutions of 2.5, 5, 10 and 20 MRC mU/0.2 ml. respectively. Male rats are subjected to intravenous injection with 0.2 ml. of the respective diluted solutions. Following the same procedure as above, the serum calcium value of the rats is determined one hour after injection. From the potency of the corresponding Research Standard, the potency of the calcitonin in the sample is determined.
smiles,measurement,value
CC(C)C[C@H](NC(=O)[C@H](CCCCN)NC(=O)CNC(=O)[C@H](CC(C)C)NC(=O)[C@@H](NC(=O)[C@@H]1CCCCCC(=O)N[C@@H](CO)C(=O)N[C@@H](CC(N)=O)C(=O)N[C@@H](CC(C)C)C(=O)N[C@@H](CO)C(=O)N[C@@H]([C@@H](C)O)C(=O)N1)C(C)C)C(=O)N[C@@H](CO)C(=O)N[C@@H](CCC(N)=O)C(=O)N[C@@H](CCC(=O)O)C(=O)N[C@@H](CC(C)C)C(=O)N[C@@H](Cc1c[nH]cn1)C(=O)N[C@@H](CCCCN)C(=O)N[C@@H](CC(C)C)C(=O)N[C@@H](CCC(N)=O)C(=O)N[C@H](C(=O)N[C@@H](Cc1ccc(O)cc1)C(=O)N1CCC[C@H]1C(=O)N[C@@H](CCCNC(=N)N)C(=O)N[C@H](C(=O)N[C@@H](CC(=O)O)C(=O)N[C@H](C(=O)NCC(=O)N[C@@H](C)C(=O)NCC(=O)N[C@H](C(=O)N1CCC[C@H]1C(N)=O)[C@@H](C)O)C(C)C)[C@@H](C)O)[C@@H](C)O [Example 1] (SNLST[Asu]VLGKLSQELHKLQTYPRTDVGAGTP-NH2; lactam N-6),potency of the purified product (serum calcium reducing activity),3450 MRC U/mg.
